For series [1], the system named is HDACs (HeLa cell nuclear extracts). The series is described as follows: HDAC activity assay (Biomol Color de Lys). It counts as biochemical. On the procedure:
HDAC inhibitory activity was assessed using the Biomol Color de Lys system (AK-500, Biomol, Plymouth Meeting, Pa.). Briefly, HeLa cell nuclear extracts were used as a source of HDACs. Different concentrations of test compounds were serially diluted in dimethylsulfoxide (DMSO) and added to HeLa cell nuclear extracts in the presence of a colorimetric artificial substrate. Final assay condition contained 50 mM Tris/C1, pH 8.0, 137 mM NaCl, 2.7 mM KCl and 1 mM MgCl2. Reactions were carried in room temperature (25° C.) for 1 hour before addition of developer for termination. Relative enzyme activity was measured in the WALLAC Victor II 1420 microplate reader as fluorescence intensity (excitation: 350-380 nm; emission: 440-460 nm). Data were analyzed using GraphPad Prism (v4.0a) with a sigmoidal dose response curve fitting for IC50 calculation.

Series [2] deals with SWI-116. The series is described as follows: Cell proliferation assay SWI-116. The series is classed as cell-based. To be noted: Homo sapiens, Colon, 72 hours, read-out: IC50 antiproliferative activity. As to the method:
(§1) Growth inhibition was accessed by adenosine triphosphate (ATP) content assay using Promega CellTiter-Glo kit. Promega CellTiter-Glo kit is an ATP monitoring system based on firefly luciferase. Briefly, 16 μl of mammalian cell lysis and substrate solution was added to 84 µl of culture medium per well to lyse the cells and stabilize the ATP. The mixture was shaken and incubated for 30 minutes and subsequently the luminescence was measured. IC50 values were calculated using PRISM software (GraphPad Software) with sigmoidal dose-response curve fitting.

In series [3] the test system is H460. Nature of the series: Cell proliferation assay H460. To be noted: Homo sapiens, NCI-H460, NSCLC, 72 hours, read-out: IC50 antiproliferative activity. The series is classed as cell-based. As to the method:
as §1

In series [4] the test system is Calu6. The series is described as follows: Cell proliferation assay Calu6. To be noted: Homo sapiens, Calu-6, NSCLC, 72 hours, read-out: IC50 antiproliferative activity. The series is classed as cell-based. As to the method:
as §1

Series [5] relates to PANC-1. Nature of the series: Cell proliferation assay PANC-1. The series is classed as cell-based. To be noted: Homo sapiens, Pancreas, 72 hours, read-out: IC50 antiproliferative activity. As to the method: as §1
Series [6] concerns ZR-75-1. The series is described as follows: Cell proliferation assay ZR-75-1. To be noted: Homo sapiens, Breast, 72 hours, read-out: IC50 antiproliferative activity. The series is classed as cell-based. On the procedure:
as §1

In series [7] the test system is MDA-MB-468. Nature of the series: Cell proliferation assay MDA-MB-468. The following applies: Homo sapiens, Breast, 72 hours, read-out: IC50 antiproliferative activity. The series is classed as cell-based. As to the method:
as §1

Series [8] relates to HL-60. The series is described as follows: Cell proliferation assay HL-60. The following applies: Homo sapiens, AML, 72 hours, read-out: IC50 antiproliferative activity. The series is classed as cell-based. On the procedure: as §1
The subject of series [9] is HuT78. The series is described as follows: Cell proliferation assay HuT78. It counts as cell-based. The following applies: Homo sapiens, T-Cell Lymphoma, 72 hours, read-out: IC50 antiproliferative activity. On the procedure:
as §1

For series [10], the system named is K562. Nature of the series: Cell proliferation assay K562. The series is classed as cell-based. The following applies: Homo sapiens, CML, 72 hours, read-out: IC50 antiproliferative activity. As to the method: as §1
Series [11] has as its system MEG-01. The series is described as follows: Cell proliferation assay MEG-01. It counts as cell-based. The following applies: Homo sapiens, CML, 72 hours, read-out: IC50 antiproliferative activity. As to the method: as §1
The test system of series [12] is RPMI-8226. The series is described as follows: Cell proliferation assay RPMI-8226. It counts as cell-based. To be noted: Homo sapiens, Multiple Myeloma, 72 hours, read-out: IC50 antiproliferative activity. On the procedure:
as §1

The test system of series [13] is OPM-2. Nature of the series: Cell proliferation assay OPM-2. It counts as cell-based. The following applies: Homo sapiens, Multiple Myeloma, 72 hours, read-out: IC50 antiproliferative activity. On the procedure: as §1
A short description of series [14]: Pharmacokinetic study in rats. The series is classed as in vivo. To be noted: rat, single oral gavage 20 mg/kg, male Sprague-Dawley rats, plasma. On the procedure:
The resulting clear yellow solution was stored at room temperature until picked up for dosing.
Three male Sprague-Dawley rats from Charles River Laboratories were used in this study. High fat diet (VHFD, D12492i) from Research Diets Inc. were provided ad libitum throughout the in-life portion of the study.
Blood samples (approximate volume 150 μL) were collected tail vein at 0.25, 0.5, 1, 3, 6, and 24 hours postdose. Blood samples were placed into tubes containing sodium heparin and centrifuged at 8000 rpm for 6 minutes at 4° C. to separate plasma from the samples. Following centrifugation, the resulting plasma was transferred to clean tubes and stored frozen at −80° C. pending bioanalysis.
The pharmacokinetic parameters were determined from mean concentration-time data in the test subjects. A compartmental modeling of WINNONILIN® Professional 5.2. was used to calculate parameters. Any concentrations that were below the limit of quantitation (lower limit of quantitation=1 ng/mL) were omitted from the calculation of parameters in individual animals.

The subject of series [15] is T and B lymphocytes. The series is described as follows: Effect on circulating and lymphoid organ lymphocytes. The series is classed as in vivo, CD1 wild type mice. To be noted: 100 mg/kg orally for five consecutive days. As to the method: Another 5 mice were treated with vehicle. Blood was collected at various time points (including pre-dosing, during dosing and post-dosing) from the mandibular vein. Blood was analyzed with a flow cytometer for T and B cell quantification.
The animals were sacrificed, and the lymphoid organs were collected. Cells were physically dissociated from the tissues and analyzed with a flow cytometer. Anti-CD3 and -CD19 antibodies were used to stain T and B cells, respectively.

In series [16] the test system is PI3K pathway signaling (AKT, 4EBP-1, p70S6) in H460 cells. The series is described as follows: Western blot / in-cell-western of PI3K pathway signaling in H460 cells. It counts as cell-based. On the procedure: Cell extracts were prepared in the presence of SDS and 2-mercaptoethanol and resolved in polyacrylamide gels. Proteins were transferred to nitrocellulose filter and blotting was done using standard procedures with blocking solutions (Li-Cor Bioscience) containing the indicated primary antibody. Primary antibodies against p-EGFR, EGFR, p-HER2, HER2, p-HER3, HER3, p-MET, MET, p-bRaf, p-cRaf, pMEK, MEK, p-ERK, ERK and tubulin were purchased from Cell Signaling Technology. Secondary antibody conjugated with IRdye 680, 800CW were used and the signal was detected with Li-Cor Odyssey Imager.
Immunocytochemistry was performed on cells grown in monolayer culture that were treated as indicated in the figure legends and then fixed in 4% (w/v) paraformaldehyde. After washing in 1×PBS, immunostaining was performed in Li-Cor blocking solution containing the indicated primary antibodies and IRDye 680- or 800CW-conjugated secondary antibodies. For in-cell-western, a Li-Cor Odyssey infrared imager was used for detection and quantification of results.
Cells were treated with DMSO alone (vehicle control) or containing test compounds for 1 h before Western blot or in-cell-western was performed.
Background: A western blot detects proteins with antibodies after separation by electrophoresis.

As to `COc1ccc(-c2nc(N3CCOCC3)c3sc(CN(C)c4ncc(C(=O)NO)cn4)cc3n2)cn1` [Compound 1, N-hydroxy-2-(((2-(6-methoxypyridin-3-yl)-4-morpholinothieno[3,2-d]pyrimidin-6-yl)methyl)(methyl)amino)pyrimidine-5-carboxamide], the half-inhibitory concentration (IC50) – broadly, the concentration that gives 50% inhibition – was less than 100 nM in series [1]; less than 10 nM in series [2]; 10 to 100 nM in series [3]; 10 to 100 nM in series [4]; 10 to 100 nM in [5]; 10 to 100 nM in [6]. Also, the IC50 was 10 to 100 nM in series [7]; less than 10 nM in [8]; less than 10 nM in series [9]; 10 to 100 nM in series [10]; less than 10 nM in series [11]; less than 10 nM in series [12]. In addition, in [13], the IC50 was less than 10 nM. The AUC(0-inf) (usually total exposure, with the tail of the curve extrapolated) in series [14] was determined as 164 ng·h/mL. Further, in series [14], the Cmax (in general, the peak of the concentration-time curve) worked out at 39.5 ng/mL. Moreover, the Tmax – broadly, the time at which the peak concentration occurs – in series [14] is 6 min. In addition, in series [14] (read-out: half-life (T1/2) (converted)), the Half-life is 11.7 h. The “Blood levels of T and B lymphocytes” value in [15] (blood) was “significant reversible reduction in the blood levels of both T and B lymphocytes”. In addition, the “T and B lymphocyte levels in spleen and lymph nodes” value in [15] (spleen and lymph nodes) was “significant reduction in both T and B lymphocytes”. Besides, the “Phosphorylation of Akt” value in series [16] was “persistently and potently inhibits phosphorylation of Akt in a dose-dependent manner”. Further, the “Activation of AKT, 4EBP-1 and p70S6” value in [16] (1 μmon) was “inhibits the activation of AKT and the downstream signaling proteins 4EBP-1 and p70S6”.

As for `CS(=O)(=O)N1CCN(Cc2cc3nc(-c4cccc5[nH]ncc45)nc(N4CCOCC4)c3s2)CC1` [GDC-0941, reference compound], the half-inhibitory concentration (IC50) in [2] was greater than 10000 nM; in series [3] it was greater than 10000 nM; in [4], greater than 10000 nM; in series [5], 1000 to 10000 nM; in [6], 100 to 1000 nM; in series [7], 100 to 1000 nM. In addition, the IC50 is 100 to 1000 nM in series [8]; 100 to 1000 nM in [9]; 1000 to 10000 nM in series [10]; greater than 10000 nM in [11]; greater than 10000 nM in series [12]; 10 to 100 nM in series [13].
